Values quoted from earlier work in patent publication US20220347157A1, “SUSTAINED RELEASE PHARMACEUTICAL COMPOSITIONS COMPRISING (1R, 5S)-1-(NAPHTHALEN-2-YL)-3-AZABICYCLO[3.1.0]HEXANE” (OTSUKA AMERICA PHARMACEUTICAL, INC., priority 2013, published 2022).

Experiments:
[1] = molecular target: serotonin reuptake (5-HT) (Homo sapiens, UniProt P31645); details: fraction of the potency towards norepinephrine reuptake
dopamine reuptake (DA) = dopamine reuptake (DA) (Homo sapiens, UniProt Q01959); details: fraction of the potency towards norepinephrine reuptake
Chain of dopamine reuptake (DA) (Q01959 whole entry): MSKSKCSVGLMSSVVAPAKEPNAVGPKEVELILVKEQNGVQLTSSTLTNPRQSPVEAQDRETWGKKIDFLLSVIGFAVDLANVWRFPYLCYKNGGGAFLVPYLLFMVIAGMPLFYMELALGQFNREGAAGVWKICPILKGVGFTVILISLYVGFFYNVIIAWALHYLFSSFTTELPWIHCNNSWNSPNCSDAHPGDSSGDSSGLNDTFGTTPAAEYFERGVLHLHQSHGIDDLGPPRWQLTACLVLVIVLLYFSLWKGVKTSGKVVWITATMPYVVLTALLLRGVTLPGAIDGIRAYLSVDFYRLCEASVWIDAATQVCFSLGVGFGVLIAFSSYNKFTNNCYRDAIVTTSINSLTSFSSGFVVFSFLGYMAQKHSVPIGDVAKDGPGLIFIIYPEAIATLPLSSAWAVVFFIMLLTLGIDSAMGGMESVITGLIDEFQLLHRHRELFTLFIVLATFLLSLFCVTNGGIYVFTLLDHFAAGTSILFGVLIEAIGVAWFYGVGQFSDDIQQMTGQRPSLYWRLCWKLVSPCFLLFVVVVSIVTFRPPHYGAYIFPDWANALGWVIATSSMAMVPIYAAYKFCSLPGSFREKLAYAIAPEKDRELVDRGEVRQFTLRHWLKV

Chain of serotonin reuptake (5-HT) (P31645 whole entry): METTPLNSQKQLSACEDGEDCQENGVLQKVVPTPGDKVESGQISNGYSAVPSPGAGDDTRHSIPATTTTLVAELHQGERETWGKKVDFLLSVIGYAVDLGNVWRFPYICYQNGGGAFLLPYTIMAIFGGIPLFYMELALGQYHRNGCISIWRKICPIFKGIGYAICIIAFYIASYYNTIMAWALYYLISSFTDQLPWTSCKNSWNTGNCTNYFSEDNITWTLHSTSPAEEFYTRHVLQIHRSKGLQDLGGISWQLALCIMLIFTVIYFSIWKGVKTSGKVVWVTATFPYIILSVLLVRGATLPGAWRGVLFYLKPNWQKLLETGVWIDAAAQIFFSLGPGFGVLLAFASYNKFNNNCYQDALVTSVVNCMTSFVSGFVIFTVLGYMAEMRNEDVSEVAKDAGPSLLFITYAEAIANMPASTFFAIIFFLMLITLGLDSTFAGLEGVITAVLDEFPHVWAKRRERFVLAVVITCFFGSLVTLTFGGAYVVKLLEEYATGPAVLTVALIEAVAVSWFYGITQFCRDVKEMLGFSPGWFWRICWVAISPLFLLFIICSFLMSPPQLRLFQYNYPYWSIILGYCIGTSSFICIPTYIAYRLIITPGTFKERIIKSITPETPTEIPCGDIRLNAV

## c1ccc2cc([C@]34CNC[C@H]3C4)ccc2c1 [(1R,5S)-1-(naphthalen-2-yl)-3-azabicyclo[3.1.0]hexane]
[1]
  potency towards serotonin reuptake (5-HT) relative to norepinephrine reuptake (NE): one-fourteenth as much
Dopamine reuptake (DA)
  potency towards dopamine reuptake (DA) relative to norepinephrine reuptake (NE): one-sixth as much
